Measurements as given in ChEMBL document CHEMBL3507680, “University of Dundee, Gates Library screen for HepG2 cell viability”.

Test: Human HepG2 cell viability assay in 384 well format
Assay type: toxicity, cell-based
Design: dose 125 nL, time 70.5 hour; cytotoxicity at 70.5 h: concentration not given beside the values
Details: HepG2 cells, read-out: Inhibition

Structure (SMILES)	cytotoxicity at 70.5 h [%]
CN(C)c1cc(CNC(=O)c2cccc(F)c2)ccn1	12.7
Cc1ccc(CN2CC[C@H]3C(=O)N(Cc4cccnc4)CCO[C@H]3C2)o1	-8.65
CS(=O)(=O)N1CCCn2nc(CNc3ncccn3)cc2C1	-1.06
CCc1nc(CC2CN(c3ncnc4nc(C)cc(C)c34)CCO2)no1 (configuration not stated)	-19
Cn1ncc(NC(=O)Cn2cc(-c3ccc(F)cn3)cn2)n1	-10.2
COCc1noc(Cn2c(C3CC3)nc3ccccc32)n1	21.1
CS(=O)(=O)NC[C@H]1OC[C@@H]2CCN(Cc3ccc(F)cc3)C[C@@H]21	16.9
O=c1[nH]c2nc(NCC3CCCO3)ncc2c(=O)n1-c1cccc(F)c1 (configuration not stated)	4.03
O=C(NC1CCN(Cn2nc(-c3ccccc3)oc2=O)CC1)C1CC1	1.77
Cc1cccc(CNC(=O)CC2CCN(C(=O)C(C)C)CC2)n1	6.37
Cc1cnc(N2CCC3(CCCCN3C)C2)nc1 (configuration not stated)	-7.87
Cc1nc(CN2CCN(C(=O)c3sccc3C3CC3)CC2)oc1C	12.6
Cc1ccc2c(c1)C1(CCNCC1)CN2C(=O)CN(C)C	4.93
CCc1n[nH]c(C2CN(CC(=O)N(C)Cc3ccco3)CCO2)n1 (configuration not stated)	-11.1
COc1c(F)cc(-c2cn(CCn3c(C)cc(C)nc3=O)nn2)cc1Cl	-2.6
CCOC(=O)CNC(=O)C1CN(C(=O)c2cnccn2)C1	-5.07
Cc1ccc(Cn2cc(Br)c(NS(C)(=O)=O)n2)cc1	-5.3
CCn1cc(CNCC(c2ccc(Cl)cc2)n2cccn2)cn1 (configuration not stated)	-14.8
O=C(c1ccc2ccccc2c1)C1CCCN(C(=O)Cn2cncn2)C1 (configuration not stated)	-1.71
Cn1cc(CNC[C@H]2Cn3ccnc3CO2)c2ccccc21	-5.61
Cc1n[nH]cc1C(=O)N1CCCC(n2nnc3cc(F)ccc32)C1 (configuration not stated)	-12.2
NC(=O)C1CN(C(=O)Nc2cc(Cl)cc(Cl)c2)CCO1 (configuration not stated)	-3.67
O=C(c1ccc(F)cc1)N1CC[C@H]2[C@H]1CCN2CC1CC1	-17.1

Structure (SMILES)	cytotoxicity at 70.5 h [%]
O=C(C1CCCCC1)N1CCCC2(CCN(c3cnccn3)CC2)C1	23.6
O=C1CC2(CCN(Cc3ccncc3)C2)CN1c1cccc(F)c1 (configuration not stated)	-12.5
O=C(NCCCN1CCOCC1)c1cccc(OCc2ccccc2)c1	-2.84
Cc1nc(NCc2nnc(C)n2C)c2c(CC(C)C)csc2n1	0.805
O=S(=O)(Nc1ccc(N2CCOCC2)cc1)c1cccc(F)c1	-1.37
Cc1ccccc1-n1cc(-c2ccnc(NC(CO)C(C)C)n2)cn1 (configuration not stated)	-7.36
Cc1nc2ccn(C(C)C)c(=O)c2cc1C(=O)O	-24.7
CN(CC(=O)Nc1ccc(Br)cn1)C(=O)Cc1ccc(O)cc1	-1.46
O=C(Cc1csc(-c2ccccc2)n1)N[C@@H](C(=O)O)c1ccccc1	-9.17
CCN1CC2(CCN(CC3COCCO3)CC2)OC1=O (configuration not stated)	44.4
CC1(C)COCCN1C(=O)CCc1nc(-c2ccncc2)no1	4.51
O=C(CC1CC1)N1CCCC2(CCC(=O)N2CC2CC2)CC1 (configuration not stated)	-8.2
c1cnc(N2CCC3(CCN(CC4CC4)CC3)CC2)nc1	-15.1
CCCC(=O)N1CCCC(C(=O)c2cnn(-c3ccc(F)cc3)c2N)C1 (configuration not stated)	-4.03
CCc1oc(C(=O)N(C)Cc2nonc2C)cc1CN(CC)CC	-16.6
CC(C)(C)c1cn(CC2CCCN(c3cnc4ccccc4n3)C2)nn1 (configuration not stated)	0.262
O=C1CC(c2ccc(C(=O)O)cc2)c2c(sc3c2CCCC3)N1 (configuration not stated)	-9.3
CCN(CC)CC1CN(Cc2ccc(C)s2)Cc2nccn2C1 (configuration not stated)	-7.85
CN1CCN(c2cc(CNCc3cccc4c3OCO4)ccn2)CC1	-8.22
O=C(c1cc2c(s1)CCCCC2)N1CCC(c2ncc[nH]2)CC1	1.98
COCCN1CCc2c(cnc(-c3ccoc3)c2C(=O)O)C1	-12.1
CCC(=O)N1CCCC(c2nc(N(C)C)ncc2-c2ccc(F)cc2)C1 (configuration not stated)	3.25
c1coc(CN2C[C@@H]3OCCN(CC4CCCO4)[C@@H]3C2)c1 (some centres not stated)	-11.5

Structure (SMILES)	cytotoxicity at 70.5 h [%]
Cc1cc(N2CCN(C(=O)c3cnn(C(C)C)c3)CC2)cc(C)n1	7.11
O=C(C1CCCO1)N1CCCn2c(nnc2Cn2cccc2)C1 (configuration not stated)	-11.4
CCc1cnc(C)nc1NCc1cnc2c(c1)CCC2	-9.06
CC(C)n1ccnc1C1CCCN(c2cncc(N(C)C)n2)C1 (configuration not stated)	2.84
Cc1cccc(CN2CCCC2c2cncc(Nc3nncs3)n2)c1 (configuration not stated)	2.33
CC(C)c1cc(NCC2(Cn3cccn3)CC2)n2nccc2n1	5.08
CC(C)(C)SCCN1CC(=O)N2CC[C@@H](O)C[C@H]2C1=O	-9.74
Cc1ccc2c(c1)C(NCc1ccccn1)CC2 (configuration not stated)	-12.6
CCOCCn1c(=O)[nH]c2cc(C(=O)N(C)Cc3nc(C)cs3)ccc21	-12.4
Cc1cccc(-c2nccnc2C2CCN(C)CC2)c1C	0.0925
CCn1cc(S(=O)(=O)Nc2ccc3[nH]c(C4CCC4)nc3c2)cn1	24.1
COCCN(Cc1cccc(C#N)c1)Cc1nc(C)no1	28.5
COc1ccc(CC(=O)N2CCC(c3n[nH]c(C4CC4)n3)CC2)cc1	2.82
Cc1cc(NC(C)C(=O)N2CCN(c3ncccn3)CC2)ccc1F (configuration not stated)	9.5
CCS(=O)(=O)N1CC[C@@H]2[C@H]1CCC(=O)N2CCOC	-3.05
O=S(=O)(C1CC1)N1CCO[C@H]2[C@@H](Oc3cccnc3)CC[C@@H]21	-5.72
CC(C)(C)NC(=O)c1ccccc1NC(=O)c1ccncc1	-5.9
CCOCCC(=O)N(C)c1ccc(F)c(Cl)c1	-7.99
Cc1cc(-n2c(C)cn(CN(C)Cc3ccccc3)c2=O)no1	-5.85
CCN(CC)S(=O)(=O)NCCc1cc(C)ccc1OC	-15.7
CC(OCC1CC1)C(=O)Nc1ccn(Cc2ccccc2)n1 (configuration not stated)	-7.82
COCCN1CCC(NC(=O)C2(c3cc(C)cc(C)c3)CC2)CC1	-11.3
O=C(c1ccc2sccc2c1)N1CCC(C(=O)O)(n2ccnc2)CC1	3.47

Structure (SMILES)	cytotoxicity at 70.5 h [%]
Cc1cccc(NC(=O)[C@@H]2CCCN2Cc2nc3ccccc3o2)n1	4.7
Cc1cccc(CN2CCCn3c(nnc3CN3CCCC3=O)C2)n1	-9.11
O=C(c1n[nH]c2c1CCN(Cc1nccs1)C2)N1CCCC1	-7.39
CCN(Cc1csc(CS(C)(=O)=O)n1)c1cccc(CO)c1	-6.41
CC(=O)N1CCN(Cc2ccc(C(F)(F)F)c(F)c2)CC(O)C1 (configuration not stated)	0.294
Cc1noc(C)c1-c1n[nH]c2c1CN(S(=O)(=O)c1ccsc1)CC2	15.3
CCOCC1CN(Cc2cnn(C)c2)Cc2ncn(CC3CC3)c21 (configuration not stated)	23.1
O=C(c1nnn(-c2ccccc2)n1)N(CCO)CCO	-5.32
COCC(=O)NC(C)c1sc(-c2ccccc2F)nc1C (configuration not stated)	-2.79
Cc1c(C(=O)NS(=O)(=O)c2ccsc2)cnn1CC(C)C	4.87
CNc1ncc(CN(C)C(=O)[C@@]23CNC[C@@H]2CN(C2CCCC2)C3)cn1	-4.91
CSCc1cccc(S(=O)(=O)NCCO)c1	0.997
Cc1cccc(CN2C(=O)CO[C@@H]3CN(C4CCOCC4)C[C@H]32)c1	0.326
CCS(=O)(=O)N1CCC(c2nnc(CN3CCCCCC3)n2C)CC1	-3.73
COCCC1(C(=O)O)CCCN(C(=O)c2cc(F)ccc2OC)C1 (configuration not stated)	-10.6
COC(C)(C)CNC(=O)C1CCC(=O)N(C2CCCC2)C1 (configuration not stated)	0.695
CS(=O)(=O)N1CCN(CC(O)COc2ccc(Cl)cc2)CC1 (configuration not stated)	0.0303
Cn1cc(-c2csc(N3CCN(c4nccs4)CC3)n2)cn1	-0.763
COc1ccc(CN(Cc2nc(C)no2)C2CCCCC2)cc1OC	-1.31
Cn1ccc2c(NC(=O)Cn3ncc4c(c3=O)CCCC4)cccc21	6.85
Cn1cc(C2CCCN2C(=O)COCCOc2ccccc2)cn1 (configuration not stated)	-4.67
CCNC(=O)[C@@H]1C[C@H](NC(=O)c2cncnc2C)CN1Cc1ccsc1	-17
c1ccc(N2CCOC3(CCCN(c4nncs4)C3)C2)nc1 (configuration not stated)	-2.74

Structure (SMILES)	cytotoxicity at 70.5 h [%]
Cc1nc(N2CCOCC2)nc2c1CCN(C(=O)NC1CCCC1)CC2	20.6
CN1CCC(Cc2noc(-c3cn(Cc4ccccc4Cl)nn3)n2)CC1	0.52
FC(F)(F)c1cc(C2CCCN(Cc3ccncc3)C2)n[nH]1 (configuration not stated)	-1.55
CC(C)(C)c1n[nH]c(C2CN(C(=O)c3cc(C4CC4)[nH]n3)CCO2)n1 (configuration not stated)	-1.31
CC(C)NC(=O)C1CCN(Cn2ccc(-c3ccc(F)cc3)n2)CC1	4
Cc1nn(C)c(C)c1C1CCCN1C(=O)c1cnc2onc(C)c2c1 (configuration not stated)	-7.3
COCCN1CCCC2(CCC(=O)N2Cc2cccnc2)C1 (configuration not stated)	28.9
CC(=O)N1CC2(CCCCN2Cc2ccc(Cl)cc2)Cc2ccccc21 (configuration not stated)	5.47
CO[C@@H]1CC[C@H]2[C@H]1OCCN2C(=O)c1ccc(C)nc1	-3.99
Cc1ccc(N2C[C@@H]3CN(C(=O)NC4CCCC4)C[C@]3(C(=O)O)C2)nn1	2.02
Cc1cc(C(=O)N2CCN(CC(O)Cn3cccn3)CC2)c(C)o1 (configuration not stated)	6.38
Cc1cs/c(=N\C(=O)Cn2nc(N3CCSCC3)ccc2=O)[nH]1	-13.2
CNC(=O)NC(=O)C(NCc1ccccc1)c1ccccc1 (configuration not stated)	17.9
O=C1OCCN1CCSc1nnnn1CC(F)(F)F	-5.39
CCn1ncc2c1CN(C(=O)c1cc(C)oc1C)CC2COC (configuration not stated)	-0.428
Cc1ccc(CCNC(=O)CC2COCCN2S(=O)(=O)N(C)C)s1 (configuration not stated)	-11
O=C(NCc1ccco1)Nc1cccc(S(=O)(=O)C(F)F)c1	-8.46
Cc1ccsc1CN(C)Cc1ncccc1C(=O)O	-2.01
CCOC(C)c1noc(CN2CCNCC2)n1 (configuration not stated)	13.6
Nc1nc2c(c(N3CCSCC3)n1)CCN(Cc1ccccn1)CC2	-2.53
